Test results published in patent US20160089377A1, “THERAPEUTIC TARGETING OF THE MTOR PATHWAY IN NEURODEVELOPMENTAL AND NEUROPSYCHIATRIC DISEASE” (THE TRUSTEES OF COLUMBIA UNIVERISTY IN THE CITY OF NEW YORK, priority 2013, published 2016).
Entries after “also recorded” stand apart in the source; their conditions may differ.

Tests used:
[1] = system: dendritic spines in the frontal association cortex; test: In vivo transcranial two-photon microscopy of dendritic spine formation and elimination; parameters: species or system mice
From the text: In order to assess whether we could reverse or prevent the abnormalities in spine dynamics in Caspr2 mutants, we treated Caspr2^+/−/Thy1-YFP/H, Caspr2^−/−/Thy-1-YFP/H mice, and WT littermates also positive for YFP/H from P12-P32 with either WYE125132 or with vehicle. One-month old (P30±1) male mice were used in the experiments. Spine formation and elimination were examined by imaging the mouse cortex through a thinned-skull window as described previously. Briefly, 1-mo old male mice expressing YFP were anaesthetized with ketamine and xylazine (intraperitoneal; 20 mg/ml and 3 mg/ml, respectively, in saline; 6 μl per gram of body weight). Thinned-skull windows were made in head-fixed mice with high-speed microdrills. Skull thickness was reduced to about 20 μm. A twophoton microscope tuned to 920 nm (×60 water immersion lens; numerical aperture,1.1) was used to acquire images. For re-imaging of the same region, thinned regions were identified on the basis of the maps of the brain vasculature. Microsurgical blades were used to re-thin the region of interest until a clear image could be obtained. The area of the imaging region was 200 μm×200 μm in the frontal association cortex. The centers of the imaging regions were as follows: +2.8 mm bregma, +1.0 mm midline.
(§1) WYE125132 (Chemscene) was administered by a daily p.o. gavaging in a volume of 10 ml/kg. For all behavioral experiments, dams were treated from PO to P12 after which individual pups were gavaged on a daily basis going forward. Mice also received drug treatment on the days of testing, at least 1 hour prior the experiment. For the two-photon and cell size quantitation studies, mice were gavaged from P12 to p35, after they were
One-month-old (P30±1) male mice were used in the experiments. Spine formation and elimination were examined by imaging the mouse frontal association cortex through a thinned-skull window as described previously (Lai, 2012).
To examine whether we could reverse the abnormalities in dendritic spine dynamics in the frontal association cortex, we gavaged the mice daily from P12 to P32 with WYE125132 versus vehicle.

[2] = system: Cntnap2 mutant mice; test: Novel Object Recognition (NOR) test; type: in vivo; settings: WYE125132-treated Cntnap2-/- mice, P<0.05
Protocol: Cntnap2 mutant and WT mice were obtained from heterozygous crossings and were born with the expected Mendelian frequencies. The three obtained genotypes were housed together. Mice were treated with p.o. gavaging once per day with either WYE125132 (10 mg/kg) or vehicle. All procedures involving animals were performed in accordance with the Columbia University/New York State Psychiatric Institute animal research committee.
as §1
Mice were marked with ear tagging. Experimenters were blinded to the genotype during testing. Behavioral tests were performed in the New York State Psychiatric Institute behavioral test core facility.
We examined whether we could reverse cognitive deficits in Cntnap2 mutant mice. We subjected Cntnap2 mutant mice to the Novel Object Recognition (NOR) test, a behavioral task that requires precise cognitive control. […]

[3] = system: layer V pyramidal neurons; test: Excitation-inhibition correlation, whole-cell recordings from slices of treated adult mice; type: in vivo
Protocol: All mice were treated with either WYE125132 or vehicle for a period of 2 weeks after which the animals were euthanized and thalamocortical slices were prepared. Briefly, animals were anesthetized, decapitated and the brain quickly placed into ice-cold dissection buffer containing (in mM): 75 sucrose, 87 NaCl, 2.5 KCl, 1.25 NaH2PO4, 0.5 CaCl2, 7 MgCl2 6H2O, 25 NaHCO3, 10 dextrose, bubbled with 95% O2/5% CO2 (pH 7.4). Slices (400 μm) were prepared with a vibratome (Leica, VT1200S), placed in 33-35° C. for artificial cerebrospinal fluid (ACSF, in mM: 124 NaCl, 2.5 KCl, 1.25 NaH2PO4, 2.5 CaCl2, 1.5 MgSO4 7H2O, 26 NaHCO3, and 10 dextrose) for <30 min; then returned to room temperature >1 hr before use. Slices were then transferred to the recording chamber and perfused (2.0-2.5 ml min-1) with oxygenated ACSF at 33-35° C. and given 30 min to stabilize. Somatic whole-cell recordings were made from layer 5 pyramidal cells in voltage and current clamp mode with a Multiclamp 700B amplifier (Molecular Devices). Selection was based on morphology and electrophysiological criteria. Patch pipettes (3-8MΩ) contained a current clamp solution. Data were filtered at 2 kHz, digitized at 10 kHz and analyzed with Clampfit. Cells were excluded from analysis if Ri or Rs changed by >25% over the course of the recording. Excitatory post-synaptic currents or potentials (EPSCs/Ps) were evoked by extracellular stimulation (0.01-1 ms, 1-10V) with a 4×1 array of electrodes placed in layer 4, and straddling the patched layer 5 neuron. Across mice we compared spontaneous and evoked inhibitory responses by clamping the membrane potential of the cell to sub-threshold levels. Furthermore, we compared inhibition generated by each stimulation electrode, to the corresponding amount of excitation when the cell was held at −80 mV. Lastly, we tested Spike-Timing Dependent Plasticity (STDP).
euthanized. For the electrophysiology and western blot rescue experiments, adult mice were gavaged for 14 consecutive days after which they were euthanized.
Whole cell recordings were made from layer V pyramidal cells of the temporal cortex. Focal extracellular stimulation was applied and excitatory and inhibitory currents were measured across various stimulation intensities to assess E:I balance. […]
recorded cell. […] We assessed this relation over multiple inputs onto the recorded postsynaptic neuron from different regions of the cortical brain slice, by systematically varying the intensity of extracellular stimulation, such that higher intensities evoke responses from larger subpopulations of presynaptic inputs (House et al., 2011). […]

CNC(=O)Nc1ccc(-c2nc(N3CC4CCC(C3)O4)c3cnn(C4CCC5(CC4)OCCO5)c3n2)cc1 [WYE125132]
spine formation (in words) ([1]; Caspr2+/-/Thy1-YFP/H mice, P12-P32, P<0.0058): increase in spine formation
spine elimination (in words) ([1]; Caspr2+/-/Thy1-YFP/H mice, P12-P32, versus vehicle, P<0.006): dramatic prevention of spine elimination
spine elimination (in words) ([1]; Caspr2-/-/Thy-1-YFP/H mice, P12-P32, versus vehicle, P<0.04): statistically significant prevention
rate of spine elimination ([1]; Cntnap2+/- mice gavaged daily P12 to P32 with WYE125132): 8.5%±2.0%
rate of spine elimination ([1]; Cntnap2-/- mice gavaged daily P12 to P32 with WYE125132): 9.5%±1.6%
spine elimination (in words) ([1]; both Cntnap2+/- and Cntnap2-/- mutant mice, P12 to P32): reduced back to levels seen in the WT littermates; also recorded: rescues excessive spine elimination
deficit in the Novel Object Recognition test [2]: rescue of this phenotype; also recorded: rescue of a deficit
correlation between excitation and inhibition (in words) ([3]; Caspr2-/- / Cntnap2 mutant mice treated with WYE125132 for 2 weeks): high correlation between excitation and inhibition
correlation between excitation and inhibition (in words) ([3]; WT littermates treated with WYE125132 for 2 weeks): high correlation between excitation and inhibition
linear correlation coefficient r between excitation and inhibition (representative recording) ([3]; WYE125132-treated Cntnap2-/- mouse, single representative recording): 0.72
linear correlation coefficient r between excitation and inhibition (summary) ([3]; WYE125132-treated Cntnap2-/- mutant mice, 14 days gavage, n=12, error s.e.m.): 0.43±0.08
